Where a name gives a salt, the structure may show the parent alone.
Target: T1, PD brain-derived alpha-synuclein aggregates (Homo sapiens, UniProt P37840)
T1 construct: from tissue; host or cells: human PD donor brain, sarkosyl-insoluble pellet
Assay: Micro-radiobinding competition assay
Type: binding
Conditions: for Competition at 100 nM (%): 100 nM example compound; for Competition at 100 nM (%) / Competition at 1 μM (%): competition over [3H]-alpha-syn reference ligand (20 nM or 30 nM), human PD brain-derived a-syn aggregates; for Competition at 1 μM (%): 1 μM example compound; for Ki: mean of two independent experiments, PD brain-derived homogenates from two different donors
Method: The procedure was adapted from the protocol described in Spillantini et al., 1998. Frozen tissue blocks from PD donors were thawed on ice and homogenized using a glass dounce homogenizer. The homogenate was then centrifuged at 11,000×g (12,700 RPM) in an ultracentrifuge (Beckman, XL100K) for 20 minutes at 4° C. using a pre-cooled 70.1 rotor (Beckman, 342184). Pellets were resuspended in extraction buffer [10 mM Tris-HCl pH 7.4, 10% sucrose, 0.85 M NaCl, 1% protease inhibitor (Calbiochem 539131), 1 mM EGTA, 1% phosphatase inhibitor (Sigma P5726 and P0044)] and centrifuged at 15,000×g (14,800 RPM, a 70.1 Ti rotor) for 20 minutes at 4° C. Pellets were discarded and sarkosyl (20% stock solution, Sigma L7414) was added to the supernatants to a final concentration of 1% and stirred at room temperature for one hour. This solution was then centrifuged at 100,000×g (38,000 RPM, 70.1 Ti rotor) for one hour at 4° C. Pellets containing enriched alpha-synuclein aggregates were resuspended in PBS per gram of brain initially used and stored at −80° C. until use.
PD brain-derived alpha-synuclein aggregates were spotted onto microarray slides. The slides were incubated with [^3H]-alpha-synuclein reference at 20 nM or 30 nM and the example compounds (non-radiolabelled) at 1 μM and 100 nM. In some cases, the non-radiolabelled example compounds were further assessed for a range of different concentrations, varying from 0.05 nM to 2 μM. After incubation, slides were washed and scanned by a real-time autoradiography system (BeaQuant, ai4R). Quantification of signal was performed by using the image analysis software Beamage (ai4R).
Non-specific signal was determined with an excess of non-radiolabelled alpha-syn reference compound (2 μM) and specific binding was calculated by subtracting the non-specific signal from the total signal. Competition was calculated as percentage, where 0% was defined as the specific binding in the presence of vehicle and 100% as the values obtained in the presence of excess of the non-radiolabelled alpha-syn reference compound. Ki values were calculated in GraphPad Prism7 by applying a nonlinear regression curve fit using a one site, specific binding model. All measurements were performed with at least two technical replicates. For compounds tested in more than one experiment, the mean of the replicates or Ki values in independent experiments is reported.

Compound	Competition at 100 nM (%)	Competition at 1 μM (%)	Ki [nM]
O=C1N(c2cccnc2)Cc2cc(-c3ccc(F)nc3)cn21 [Example 4, 6-(6-fluoropyridin-3-yl)-2-(pyridin-3-yl)-1H-pyrrolo[1,2-c]imidazol-3(2H)-one]	51	52	–
Cn1cc(N2Cc3cc(-c4ccc(N5CC[C@H](F)C5)nc4)cn3C2=O)cn1 [Example 5, (S)-6-(6-(3-fluoropyrrolidin-1-yl)pyridin-3-yl)-2-(1-methyl-1H-pyrazol-4-yl)-1,2-dihydro-3H-pyrrolo[1,2-c]imidazol-3-one Hydrogen Chloride Salt]	87	102	–
Cn1cc(N2Cc3cc(-c4ccc(N5CC[C@@H](F)C5)nc4)cn3C2=O)cn1 [Example 6, (R)-6-(6-(3-fluoropyrrolidin-1-yl)pyridin-3-yl)-2-(1-methyl-1H-pyrazol-4-yl)-1,2-dihydro-3H-pyrrolo[1,2-c]imidazol-3-one Hydrogen Chloride Salt]	82	100	–

Second part, the compound after the results:

Competition at 100 nM (%)	Competition at 1 μM (%)	Ki [nM]	Compound
75	95	–	O=C1N(c2cccnc2)Cc2cc(-c3ccc(N4CC[C@@H](F)C4)nc3)cn21 [Example 1, (R)-6-(6-(3-fluoropyrrolidin-1-yl)pyridin-3-yl)-2-(pyridin-3-yl)-1H-pyrrolo[1,2-c]imidazol-3(2H)-one Hydrochloride]
63	86	124	O=C1N(c2cccnc2)Cc2nc(-c3ccc(N4CC[C@@H](F)C4)nc3)cn21 [Example 2, (R)-2-(6-(3-fluoropyrrolidin-1-yl)pyridin-3-yl)-6-(pyridin-3-yl)-6,7-dihydro-5H-imidazo[1,5-a]imidazol-5-one Hydrochloride]
59	85	97	O=C1N(c2cccnc2)Cc2nc(-c3ccc(N4CC[C@H](F)C4)nc3)cn21 [Example 3, (S)-2-(6-(3-fluoropyrrolidin-1-yl)pyridin-3-yl)-6-(pyridin-3-yl)-6,7-dihydro-5H-imidazo[1,5-a]imidazol-5-one Hydrochloride]
69	85	–	O=C1N(c2cccnc2)Cc2cc(-c3ccc(N4CC[C@H](F)C4)nc3)cn21 [Example 7, (S)-6-(6-(3-fluoropyrrolidin-1-yl)pyridin-3-yl)-2-(pyridin-3-yl)-1,2-dihydro-3H-pyrrolo[1,2-c]imidazol-3-one Hydrogen Chloride Salt]
